Earlier results in US7838696B2, “Hydroconversion process employing multi-metallic catalysts and method for making thereof” (Chevron U. S. A. Inc., priority 2007, dated 2010).

System: rats
Conditions: rat, in vivo, po

For `O=CC(=O)O` [glyoxylic, glyoxylic acid], the LD50 is given as 3000 mg/kg.
